Source: publication PMC10937676, “Targeting the NTSR2/TrkB oncogenic pathway in chronic lymphocytic leukemia” (Scientific Reports, 2024)

Key:
SRC = test: Immunoblot, relative phosphorylation level of SRC in CLL-B cells; format: cell-based, human; conditions: CLL-B cells from 10 patients, overnight, 10 µM
Protocol: (§1) Figure 5 The peptide inhibits kinase phosphorylation. CLL-B cells from 10 patients were incubated overnight, with or without 10 µM of TAT-Pep. Whole cell lysates were then prepared, and 10 µg of proteins were immunoblotted to assess the following parameters. (A) Relative phosphorylation level of SRC. (B) Relative phosphorylation level of AKT. (C) Relative phosphorylation level of LYN. (D) Relative phosphorylation level of BTK. (E) Relative phosphorylation level of all tyrosine-phosphorylated proteins.
(§2) Whole cell lysate proteins were extracted using RIPA buffer (Sigma-Aldrich) and sonication (VibraCell™). Plasma membrane proteins were recovered by using the Plasma Membrane Protein Extraction Kit (Abcam) according to the manufacturer’s instructions. A list of the antibodies used for immunoblotting is available in Supplementary Table 2. Bands were quantitatively assessed by densitometry using Fiji software. To evaluate the level of interaction of NTSR2 and TRKB we normalized the density of the TRKB bands by the density of the NTSR2 bands to obtain the relative amount of TRKB co-precipitated through NTSR2.

AKT = test: Immunoblot, relative phosphorylation level of AKT in CLL-B cells; format: cell-based, human; conditions: CLL-B cells from 10 patients, overnight, 10 µM
Protocol: as §1, §2

LYN = test: Immunoblot, relative phosphorylation level of LYN in CLL-B cells; format: cell-based, human; conditions: CLL-B cells from 10 patients, overnight, 10 µM
Protocol: as §1, §2

[1] = test system: Bruton Tyrosine Kinase (BTK); test: Immunoblot, relative phosphorylation level of BTK in CLL-B cells; format: cell-based, human; conditions: CLL-B cells from 10 patients, overnight, 10 µM
Protocol: as §1, §2

[2] = test system: all tyrosine-phosphorylated proteins; test: Immunoblot, relative phosphorylation level of all tyrosine-phosphorylated proteins in CLL-B cells; format: cell-based, human; conditions: CLL-B cells from 10 patients, overnight, 10 µM
Protocol: as §1, §2

BCL-2 = test: Immunoblot, relative level of anti-apoptotic protein BCL-2 in CLL-B cells; format: cell-based, human; conditions: CLL-B cells from 10 patients, overnight, 10 µM
Description: (§3) Concerning anti-apoptotic protein expression, a decrease in anti-apoptotic proteins BCL-2; BCL-XL and MCL-1 was observed after TAT-Pep treatment of CLL-B cells, possibly as a consequence of the SRC kinase inactivation (Fig. 6A–C). To unveil whether the regulation mechanism behind the observed modifications was transcriptional or post-transcriptional, we evaluated the mRNA levels of all three anti-apoptotic proteins following peptide treatment. […] To further underline that the induction of cell death following TAT-Pep treatment involved apoptosis regulation pathways, we used B cells from six CLL patients and stained them with Annexin V in both TAT-Pep treated and untreated conditions. […]
(§4) Figure 6 The peptide lowers anti-apoptotic proteins levels. […] CLL-B cells from 12 patients were incubated overnight, with or without 10 µM of TAT-Pep, subsequently RNA was extracted from cell lysates and mRNA levels of BCL-2 (D); BCL-XL (E) and MCL-1 (F) were evaluated using RTqPCR; 18S was used as a housekeeping gene. (G) Increased concentrations (0 to 30 µM) of TAT-Pep were incubated with 20,000 CLL-B, and the number of Annexin V-positive cells was measured using the Incucyte live-cell imaging device. Fluorescence was monitored for 48 h. […] The ‘Green Object Count/Phase Object Count’ ratio was determined using the Incucyte analysis software to obtain the percentage of apoptotic cells. […]

MCL-1 = test: Immunoblot, relative level of anti-apoptotic protein MCL-1 in CLL-B cells; format: cell-based, human; conditions: CLL-B cells from 10 patients, overnight, 10 µM
Description: as §3, §4

BCL-2 mRNA = test: RTqPCR, mRNA level of BCL-2 in CLL-B cells; format: cell-based, human; conditions: CLL-B cells from 12 patients, overnight, 10 µM, 18S housekeeping gene
Description: as §3, §4

BCL-XL mRNA = test: RTqPCR, mRNA level of BCL-XL in CLL-B cells; format: cell-based, human; conditions: CLL-B cells from 12 patients, overnight, 10 µM, 18S housekeeping gene
Description: as §3, §4

MCL-1 mRNA = test: RTqPCR, mRNA level of MCL-1 in CLL-B cells; format: cell-based, human; conditions: CLL-B cells from 12 patients, overnight, 10 µM, 18S housekeeping gene
Description: as §3, §4

CLL-B cells = test: Apoptosis of CLL-B cells, Annexin V staining (Incucyte); format: cell-based, human; conditions: 20,000 CLL-B cells, 6 patients, technical triplicates, Annexin V Dye, 48 h, area under the curve
Description: Concerning anti-apoptotic protein expression, a decrease in anti-apoptotic proteins BCL-2; BCL-XL and MCL-1 was observed after TAT-Pep treatment of CLL-B cells, possibly as a consequence of the SRC kinase inactivation (Fig. 6A–C). To unveil whether the regulation mechanism behind the observed modifications was transcriptional or post-transcriptional, we evaluated the mRNA levels of all three anti-apoptotic proteins following peptide treatment. […] To further underline that the induction of cell death following TAT-Pep treatment involved apoptosis regulation pathways, we used B cells from six CLL patients and stained them with Annexin V in both TAT-Pep treated and untreated conditions. As shown on Fig. 6G, TAT-Pep treatment did induce apoptosis in CLL-B cells. […] However, at 5 µM, there was already a 1.9-fold increase in cell death compared to the control. It progressively rose to a 2.5-fold increase and a 3.6-fold increase for 10 µM and 30 µM, respectively.
Figure 6 The peptide lowers anti-apoptotic proteins levels. CLL-B cells from 10 patients were incubated overnight, with or without 10 µM of TAT-Pep. Whole cell lysates were then prepared, and 10 µg of proteins were immunoblotted to assess the following parameters. (A) Relative level of the anti-apoptotic protein BCL-2 in B-CLL. (B) Relative level of the anti-apoptotic protein BCL-XL and (C) relative level of the anti-apoptotic protein MCL-1. CLL-B samples from ten different patients were utilized for the analysis. CLL-B cells from 12 patients were incubated overnight, with or without 10 µM of TAT-Pep, subsequently RNA was extracted from cell lysates and mRNA levels of BCL-2 (D); BCL-XL (E) and MCL-1 (F) were evaluated using RTqPCR; 18S was used as a housekeeping gene. (G) Increased concentrations (0 to 30 µM) of TAT-Pep were incubated with 20,000 CLL-B, and the number of Annexin V-positive cells was measured using the Incucyte live-cell imaging device. Fluorescence was monitored for 48 h. […] The ‘Green Object Count/Phase Object Count’ ratio was determined using the Incucyte analysis software to obtain the percentage of apoptotic cells. The area under the curve for each condition was then calculated, and they were compared using a t-test.
Cell viability and survival were monitored using the IncucyteS3 system (Sartorius), a live-cell imaging device enabling the tracking of fluorescence over set periods of time[41],[42]. […] In all analyses, the ‘Green Object Count/Phase Object Count’ ratio was determined using the Incucyte analysis software to obtain the percentage of dead cells. The area under the curve for each condition was then calculated, and they were compared using a t-test. To evaluate proliferation, phase confluence was determined and normalized with t = 0 h using the Incucyte analysis software.

NTSR2/TRKB interaction = NTSR2/TRKB interaction (Homo sapiens, UniProt Q16620); test: Proximity ligation assay (PLA) for NTSR2 and TRKB in CLL-B cells; format: cell-based; set-up: endogenous in cells; host or cells: primary CLL-B cells from three CLL patients; conditions: CLL-B cells from three CLL patients, 10 µM overnight; compared with TAT alone or untreated; spots counted in 50 cells
Protocol: Nuclei were stained with DAPI (blue). […] (C) Representative immunoblot of 3 independent experiments. […] Nuclei were stained with DAPI (blue). Magnification × 40.
In a second approach, we investigated the inhibition of the NTSR2/TRKB interaction in CLL-B cells from three CLL patients using PLA on NTSR2 and TRKB. The leukemic B cells were either treated with the TAT-Pep peptide, TAT alone, or left untreated, and then the proximity ligation assay was performed (Fig. 4E,F).
Cells were fixed with methanol at − 20 °C for 10 min and then the Duolink kit (Sigma) was used to perform the PLA according to the manufacturer’s instructions. Before observation, cells were mounted on glass slides with DAPI-containing mounting medium and results were observed by confocal microscopy (LSM880, Zeiss) and analyzed using the Fiji software (ImageJ).

Sequence of NTSR2/TRKB interaction (Q16620 32-822): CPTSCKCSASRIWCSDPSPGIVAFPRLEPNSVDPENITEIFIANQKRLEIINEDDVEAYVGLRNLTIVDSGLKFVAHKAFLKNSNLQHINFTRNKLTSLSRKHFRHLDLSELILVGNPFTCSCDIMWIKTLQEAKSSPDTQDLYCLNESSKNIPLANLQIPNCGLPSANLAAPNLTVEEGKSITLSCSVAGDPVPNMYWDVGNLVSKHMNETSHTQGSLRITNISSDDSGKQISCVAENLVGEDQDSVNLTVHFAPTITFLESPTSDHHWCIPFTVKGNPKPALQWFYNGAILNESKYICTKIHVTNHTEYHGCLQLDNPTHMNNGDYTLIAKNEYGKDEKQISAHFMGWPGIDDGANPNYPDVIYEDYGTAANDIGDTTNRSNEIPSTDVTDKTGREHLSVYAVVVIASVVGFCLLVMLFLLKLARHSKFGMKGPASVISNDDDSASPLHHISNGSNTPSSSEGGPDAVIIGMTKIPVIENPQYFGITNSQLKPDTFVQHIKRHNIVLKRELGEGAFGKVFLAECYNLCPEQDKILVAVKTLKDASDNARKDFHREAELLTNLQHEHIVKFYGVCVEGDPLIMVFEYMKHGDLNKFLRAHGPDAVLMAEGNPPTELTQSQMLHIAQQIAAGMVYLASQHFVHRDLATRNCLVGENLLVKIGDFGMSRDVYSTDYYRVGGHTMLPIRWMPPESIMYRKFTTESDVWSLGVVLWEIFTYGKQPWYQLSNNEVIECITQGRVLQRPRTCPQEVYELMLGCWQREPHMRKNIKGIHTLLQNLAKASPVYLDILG

GRKKRRQRRRPPQNAVSSSFRKLFLEAVSSLCGEHHPMKRLPPKPQSPTLMDTASGFGDPPETRT [TAT-Pep]
amount of phosphorylated SRC (in words) (SRC): significant decrease | AKT phosphorylation (in words) (AKT): did not observe any variation | LYN phosphorylation (in words) (LYN): significant decrease in phosphorylation | BTK phosphorylation (in words) [1]: did not affect BTK phosphorylation | global level of tyrosine phosphorylation (in words) [2]: general decrease in tyrosine phosphorylation | level of anti-apoptotic protein BCL-2 (in words) (BCL-2): decrease | level of anti-apoptotic protein MCL-1 (in words) (MCL-1): decrease | mRNA level of BCL-2 (in words) (BCL-2 mRNA): significantly lowered expression | mRNA level of BCL-XL (in words) (BCL-XL mRNA): significantly lowered expression | mRNA level of MCL-1 (in words) (MCL-1 mRNA): significantly lowered expression | Annexin V-positive cells compared to the control (in words) (CLL-B cells; 2.5 µM): no significant cytotoxicity was observed | increase in cell death (Annexin V-positive cells) compared to the control (CLL-B cells; 5 µM): 1.9 fold | increase in cell death (Annexin V-positive cells) compared to the control (CLL-B cells; 10 µM): 2.5 fold | increase in cell death (Annexin V-positive cells) compared to the control (CLL-B cells; 30 µM): 3.6 fold | PLA red fluorescence spots (proximity of NTSR2 and TRKB), in words (NTSR2/TRKB interaction): dramatically reduced
